Experimental data taken from patent US11059823B2, “Small molecule inhibitors of the JAK family of kinases” (Janssen Pharmaceutica NV, priority 2016, dated 2021).

System: IL-2 pSTAT5 (JAK1/JAK3)
Assay: IL-2 pSTAT5 (JAK1/JAK3) cellular assay in PBMCs (AlphaLISA)
Assay type: cell-based
Conditions: PBMC, IL-2 5 ng/mL
Procedure: For all compounds tested, there was measured inhibition of STAT phosphorylation with all three stimuli.
The AlphaLISA assay (based on Alpha Technology from PerkinElmer) was performed by first plating freshly thawed PBMCs (Biological Specialty Corporation) in 384-well plates at 30,000 cells per 4 μL per well in HBSS (Hanks' Balanced Salt Solution) containing 0.1% IgG (immunoglobulin G)-free, protease-free BSA (bovine serum albumin) (Jackson ImmunoResearch Cat. No. 001-000-161). The cells were then treated with 2 μL/well of compounds diluted in DMSO at half-log titrated concentrations, with a highest test concentration of 10 μM and 0.5% final DMSO concentration, for thirty minutes at 37° C. […] The cellular reactions were terminated by the addition of 2 μL/well of lysis buffer (PerkinElmer Cat. No. ALSU-PST5-A10K) followed by an incubation of five minutes at room temperature. […] Finally, the plates were read on a PerkinElmer EnVision for detection of the time-resolved fluorescence signal. The percentage of IL-2-dependent pSTAT5 inhibition was determined at the compound test concentrations; and for each compound, a dose curve was generated and the IC50 was calculated. Compound IC50 was calculated by nonlinear regression, sigmoidal dose response analysis of the half-log dilution titration curve of the compound concentration vs. Alpha signal. […]

Structure (SMILES): N#CC[C@H]1CC[C@H](n2c(-c3c[nH]cn3)nc3cnc4[nH]ccc4c32)CC1 [Ex. 2, 2-((1r,4r)-4-(2-(1H-Imidazol-4-yl)imidazo[4,5-d]pyrrolo[2,3-b]pyridin-1(6H)-yl)cyclohexyl)acetonitrile]
- IC50: 9 nM
